These are literature values, as cited in US20110190221A1, “MODULATION AND REPLETION/ENHANCEMENT OF THE COMPLEMENT SYSTEM FOR TREATMENT OF TRAUMA” (APELLIS AG, priority 2008, published 2011).

The subject of this data set is complement activation. Conditions: relative to compstatin amidated at the C-terminus; based on published data (WO2004/026328, Mallik 2005, Katragadda 2006).

Turning to ICVVQDWGHHRCT [Ac-compstatin], the Activity over compstatin is 3 × more.
